In the experiment the target is T1, human MRGPRX2 (Homo sapiens, UniProt Q96LB1).
T1 construct: expressed in transfected cells; host or cells: CHO cells, stably transfected (G418 and Hygromycin B selection)
T1 sequence (Q96LB1 1-330): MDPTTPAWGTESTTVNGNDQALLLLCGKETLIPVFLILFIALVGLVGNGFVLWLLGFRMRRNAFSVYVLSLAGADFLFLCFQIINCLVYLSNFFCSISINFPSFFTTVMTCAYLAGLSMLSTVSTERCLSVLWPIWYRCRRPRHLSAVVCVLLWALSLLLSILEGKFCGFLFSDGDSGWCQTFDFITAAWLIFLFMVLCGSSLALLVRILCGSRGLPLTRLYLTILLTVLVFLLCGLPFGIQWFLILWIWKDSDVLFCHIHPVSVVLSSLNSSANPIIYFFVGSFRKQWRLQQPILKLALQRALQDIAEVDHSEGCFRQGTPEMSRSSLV
The experiment in a line: MRGPRX2 activity: IP-One Gq HTRF assay in CHO cells, antagonism versus 0.3 uM Cortistatin-14. It is filed as cell-based. Conditions: versus 0.3 uM Cortistatin-14 agonist, CHO cells expressing human MRGPRX2, read-out: MRGPRX2 Antagonist Activity. As for the experimental part: CHO cells stably transfected to express human MRGPRX2 were maintained in an incubator at 37° C. with 5% CO2 and grown in F12 (HAM) media with 10% fetal bovine serum (FBS), 1% Glutamax, 1% penicillin/streptomycin, 800 μg/mL Geneticin (G418), and 300 μg/mL Hygromycin B.
Cells were plated in a 384-well assay plate at 20,000 cells per well in 12 μL of Opti-MEM and kept in an incubator overnight. On the day of the assay, compounds solubilized at 10 mM in DMSO were added as a 10-point curve (30 uM final top concentration with 1:3 serial dilutions) using a Tecan D300E digital dispenser. Agonists were diluted in assay buffer (final concentrations of 5.7 mM Tris-HCl, 43 mM NaCl, 50 mM LiCl, pH=8) and 2 μL of the agonist Cortistatin-14 (CPC Scientific, catalog CORT-002) are added to each well. Final concentrations of agonists were 0.3 μM Cortistatin. Final concentrations of DMSO were kept consistent across the plate. Plates were incubated in the dark for 1 h at 37° C. and then for 1 h at room temperature. IP-1 standards and HTRF detection reagents were added according to the IP-One—Gq Kit purchased from Cisbio (part number 62IPAPEJ) and incubated in the dark for 1 h at room temperature. The plate was read on a Molecular Devices SpectraMax iD5 plate reader. The HTRF ratio was calculated from the raw data and graphed using GraphPad Prism to calculate an IC50 value for each compound.
The activity ranges are denoted as follows: “+++++” denotes antagonist activity <100 nM; “++++” denotes antagonist activity between 100 and 500 nM; “+++” denotes activity between 501 and 1000 nM; “++” denotes activity between 1001 and 2500 nM; and “+” denotes activity >2500 nM.
For the compound `O=S1(=O)N=C(NCc2cccc(Cl)c2F)Nc2c1ccc(F)c2Oc1ccccc1Cl` [Compound 1-25, 3-((3-chloro-2-fluorobenzyl)amino)-5-(2-chlorophenoxy)-6-fluoro-4H-benzo[e][1,2,4]thiadiazine 1,1-dioxide], the IC50 was < 100 nM. As for `O=S1(=O)N=C(NCc2ncccc2C(F)(F)F)Nc2c1ccc(F)c2Oc1ccccc1Cl` [Compound 1-26, 5-(2-chlorophenoxy)-6-fluoro-3-(((3-(trifluoromethyl)pyridin-2-yl)methyl)amino)-4H-benzo[e][1,2,4]thiadiazine 1,1-dioxide], the IC50 is 1000 to 2500 nM. As for `O=S1(=O)N=C(NCc2ccccc2C(F)(F)F)Nc2c1ccc(F)c2Oc1ccccc1Cl` [Compound 1-27, 5-(2-chlorophenoxy)-6-fluoro-3-((2-(trifluoromethyl)benzyl)amino)-4H-benzo[e][1,2,4]thiadiazine 1,1-dioxide], the IC50 is < 100 nM. As for `O=S1(=O)N=C(NCc2cnccc2C(F)(F)F)Nc2c1ccc(F)c2Oc1ccccc1Cl` [Compound 1-28, 5-(2-chlorophenoxy)-6-fluoro-3-(((4-(trifluoromethyl)pyridin-3-yl)methyl)amino)-4H-benzo[e][1,2,4]thiadiazine 1,1-dioxide], the IC50 lay in the range of 501 to 1000 nM.

Consider `O=S1(=O)N=C(NCc2ccc(F)cc2F)Nc2c1ccc(F)c2Oc1ccccc1Cl` [Compound 1-29, 5-(2-chlorophenoxy)-3-((2,4-difluorobenzyl)amino)-6-fluoro-4H-benzo[e][1,2,4]thiadiazine 1,1-dioxide], for which the IC50 was < 100 nM. For the compound `COc1cccnc1CNC1=NS(=O)(=O)c2ccc(F)c(Oc3ccccc3Cl)c2N1` [Compound 1-30, 5-(2-chlorophenoxy)-6-fluoro-3-(((3-methoxypyridin-2-yl)methyl)amino)-4H-benzo[e][1,2,4]thiadiazine 1,1-dioxide], the IC50 is 100 to 500 nM. Take `COc1ccccc1CNC1=NS(=O)(=O)c2ccc(F)c(Oc3ccccc3Cl)c2N1` [Compound 1-31, 5-(2-chlorophenoxy)-6-fluoro-3-((2-methoxybenzyl)amino)-4H-benzo[e][1,2,4]thiadiazine 1,1-dioxide]: the IC50 lay in the range of 100 to 500 nM. Consider `Cc1cccnc1CNC1=NS(=O)(=O)c2ccc(F)c(Oc3ccccc3Cl)c2N1` [Compound 1-32, 5-(2-chlorophenoxy)-6-fluoro-3-(((3-methylpyridin-2-yl)methyl)amino)-4H-benzo[e][1,2,4]thiadiazine 1,1-dioxide], for which the IC50 was in the range of 100 to 500 nM. In the case of `O=S1(=O)N=C(NCc2ncccc2F)Nc2c1ccc(F)c2Oc1c(F)cccc1F` [Compound 1-33, 5-(2,6-difluorophenoxy)-6-fluoro-3-(((3-fluoropyridin-2-yl)methyl)amino)-4H-benzo[e][1,2,4]thiadiazine 1,1-dioxide], the IC50 lay in the range of 501 to 1000 nM. Take `O=S1(=O)N=C(NCc2ncccc2F)Nc2c1ccc(F)c2Oc1c(Cl)ccc2ccccc12` [Compound 1-34, 5-((2-chloronaphthalen-1-yl)oxy)-6-fluoro-3-(((3-fluoropyridin-2-yl)methyl)amino)-4H-benzo[e][1,2,4]thiadiazine 1,1-dioxide]: the IC50 is < 100 nM. Take `O=S1(=O)N=C(NCc2ncccc2F)Nc2c1ccc(F)c2Oc1ccccc1-c1ccccc1` [Compound 1-35, 5-([1,1′-biphenyl]-2-yloxy)-6-fluoro-3-(((3-fluoropyridin-2-yl)methyl)amino)-4H-benzo[e][1,2,4]thiadiazine 1,1-dioxide]: the IC50 is 1000 to 2500 nM. Take `CC(C)(C)c1cccc(Cl)c1Oc1c(F)ccc2c1NC(NCc1ncccc1F)=NS2(=O)=O` [Compound 1-36, 5-(2-(tert-butyl)-6-chlorophenoxy)-6-fluoro-3-(((3-fluoropyridin-2-yl)methyl)amino)-4H-benzo[e][1,2,4]thiadiazine 1,1-dioxide]: the IC50 is < 100 nM. Take `O=S1(=O)N=C(NCc2ncccc2O)Nc2c1ccc(F)c2Oc1ccccc1Cl` [Compound 1-37, 5-(2-chlorophenoxy)-6-fluoro-3-(((3-hydroxypyridin-2-yl)methyl)amino)-4H-benzo[e][1,2,4]thiadiazine 1,1-dioxide]: the IC50 was > 2500 nM. Regarding `O=S1(=O)N=C(NCc2ncccc2F)Nc2c1ccc(F)c2Oc1cc(Cl)ccc1Cl` [Compound 1-38, 5-(2,5-dichlorophenoxy)-6-fluoro-3-(((3-fluoropyridin-2-yl)methyl)amino)-4H-benzo[e][1,2,4]thiadiazine 1,1-dioxide], the IC50 is < 100 nM. Then `O=S1(=O)N=C(NCc2ncccc2F)Nc2c1ccc(F)c2Oc1ccc(F)cc1F` [Compound 1-39, 5-(2,4-difluorophenoxy)-6-fluoro-3-(((3-fluoropyridin-2-yl)methyl)amino)-4H-benzo[e][1,2,4]thiadiazine 1,1-dioxide], with < 100 nM.

As for `O=S1(=O)N=C(NCc2ncccc2F)Nc2c1ccc(F)c2Oc1cccc(F)c1F` [Compound 1-40, 5-(2,3-difluorophenoxy)-6-fluoro-3-(((3-fluoropyridin-2-yl)methyl)amino)-4H-benzo[e][1,2,4]thiadiazine 1,1-dioxide], the IC50 lay in the range of 100 to 500 nM. Regarding `O=S1(=O)N=C(NCc2ncccc2F)Nc2c(Oc3ccccc3Cl)c(F)cc(Cl)c21` [Compound 1-41, 8-chloro-5-(2-chlorophenoxy)-6-fluoro-3-(((3-fluoropyridin-2-yl)methyl)amino)-4H-benzo[e][1,2,4]thiadiazine 1,1-dioxide], the IC50 was 100 to 500 nM. For `O=S1(=O)N=C(NCc2ncccc2F)Nc2c(Oc3ccccc3Cl)c(Cl)cc(F)c21` [Compound 1-42, 6-chloro-5-(2-chlorophenoxy)-8-fluoro-3-(((3-fluoropyridin-2-yl)methyl)amino)-4H-benzo[e][1,2,4]thiadiazine 1,1-dioxide], the IC50 lay within 100 to 500 nM. As for `O=S1(=O)N=C(NCc2ncccc2F)Nc2c1ccc(Cl)c2Oc1ccccc1Cl` [Compound 1-43, 6-chloro-5-(2-chlorophenoxy)-3-(((3-fluoropyridin-2-yl)methyl)amino)-4H-benzo[e][1,2,4]thiadiazine 1,1-dioxide], the figure is < 100 nM; as for `[2H]C([2H])(NC1=NS(=O)(=O)c2ccc(F)c(Oc3ccccc3Cl)c2N1)c1ccccc1` [Compound 1-44, 5-(2-chlorophenoxy)-6-fluoro-3-((phenylmethyl-d2)amino)-4H-benzo[e][1,2,4]thiadiazine 1,1-dioxide], 100 to 500 nM. On to `Cc1cc(F)c(Oc2ccccc2Cl)c2c1S(=O)(=O)N=C(NCc1ncccc1F)N2` [Compound 1-45, 5-(2-chlorophenoxy)-6-fluoro-3-(((3-fluoropyridin-2-yl)methyl)amino)-8-methyl-4H-benzo[e][1,2,4]thiadiazine 1,1-dioxide], for which the IC50 lay in the range of 100 to 500 nM. `O=S1(=O)N=C(NCc2cccc(F)n2)Nc2c1ccc(Cl)c2Oc1ccccc1Cl` [Compound 1-46, 6-chloro-5-(2-chlorophenoxy)-3-(((6-fluoropyridin-2-yl)methyl)amino)-4H-benzo[e][1,2,4]thiadiazine 1,1-dioxide]: the IC50 is < 100 nM. On to `O=S1(=O)N=C(NCc2ncccc2F)Nc2c1cc(Cl)c(F)c2Oc1ccccc1Cl` [Compound 1-47, 7-chloro-5-(2-chlorophenoxy)-6-fluoro-3-(((3-fluoropyridin-2-yl)methyl)amino)-4H-benzo[e][1,2,4]thiadiazine 1,1-dioxide], for which the IC50 was in the range of 501 to 1000 nM. For the compound `O=S1(=O)N=C(NCc2ncccc2F)Nc2c1cc(F)c(Cl)c2Oc1ccccc1Cl` [Compound 1-48, 6-chloro-5-(2-chlorophenoxy)-7-fluoro-3-(((3-fluoropyridin-2-yl)methyl)amino)-4H-benzo[e][1,2,4]thiadiazine 1,1-dioxide], the IC50 was < 100 nM. For `O=S1(=O)N=C(NCc2ccccc2)Nc2c1ccc(F)c2Oc1ccccc1Cl` [Compound 1-49, 3-(benzylamino)-5-(2-chlorophenoxy)-6-fluoro-4H-benzo[e][1,2,4]thiadiazine 1,1-dioxide], the IC50 is < 100 nM. Take `O=S1(=O)N=C(NCc2ncccc2F)Nc2c1ccc(Cl)c2Oc1cccc(Cl)c1Cl` [Compound 1-50, 6-chloro-5-(2,3-dichlorophenoxy)-3-(((3-fluoropyridin-2-yl)methyl)amino)-4H-benzo[e][1,2,4]thiadiazine 1,1-dioxide]: the IC50 is < 100 nM.

The values above are taken from patent US20250170141A1, “MRGPRX2 MODULATORS AND RELATED METHODS OF TREATMENT” (Escient Pharmaceuticals, Inc., priority 2023, published 2025).
